This note sets out measurements from patent US20230049350A1, “COMPOUNDS FOR TREATING BRAIN CANCER” (Purdue Pharmaceutical Products L.P., priority 2014, published 2023).

What all share (format): cell-based
One test deals with U87MG. Briefly: GBM cell line viability IC50, U87. The note with it: Homo sapiens, U-87 MG. As for the experimental part: (§1) In vitro experiments were devised in which a series of GBM cell lines representative for MGMT negative and MGMT positive tumour cells were used.
(§2) Compounds: 1-100 µM EDO-S101, 1-50 µM temozolomide (TMZ), 1-50 µM temozolomide + 500 nM vorinostat, 1-40 µM bendamustine, 1-40 µM bendamustine and 500 nM vorinostat.
(§3) Twelve glioblastoma cell lines representing grade III and IV gliomas and with different expression of MGMT, drug and radiotherapy sensitivity and five patient derived glioblastoma stem, cells were used (see above). Four patient-derived glioblastoma stem cells, kindly provided from J. Gregory Cairncross, and Samuel Weiss at the Hotchkiss Brain Institute, Faculty of Medicine, University of Calgary, Calgary, Alberta, Canada and one luciferase transfected, PTC#8, from Prof Angelo Vescovi, University la Bicocca, Milan were cultured in defined culture serum free medium (SFM) and in non-adherent spheres culture. Cells were resuspended in DMEM/F12 media without serum supplemented with 20 ng/ml epidermal growth factor (Sigma-Aldrich), 20 ng/ml basic fibroblast growth factor (Sigma-Aldrich), B-27 supplement 1X (Gibco, Life Technologies), and antibiotics. Treatment with EDO-S101 was added straight after plating 3×10^3 cells in 96-well plates with the stem cells media. Spheres were counted 5 days after treatment under an inverted microscope at ×4 magnification. A sphere was counted if it had at least 15 cells.
(§4) Cells were seeded at a density of 2 × 10^4 cells/ml in 24 well plates. Cells were left to attach and grow in 5% FCS DMEM for 24 h. […] Cells trypsinized and resuspended in 1.0 ml of saline were counted using the NucleoCounterTM NC-100 (automated cell counter systems, Chemotec, Cydevang, DK) in order to evaluate cell viability. […] IC50 values were calculated by the GraFit method (Erithacus Software Limited, Staines, UK). Cell viability was measured with the 3-(4,5 dimethylthiazol-2-yl)-2,5-diphenyl tetrazolium bromide (MTT; Sigma-Aldrich) assay.
(§5) IC50 and IC20 values for all twelve cell lines against bendamustine and vorinostat were also determined as described above. […]

The subject of the next test is U118MG. Put plainly: GBM cell line viability IC50, U118. The conditions noted are these: Homo sapiens, U-118-MG. As for the experimental part:
as §1, §2, §3, §4, §5

The test system of a further test is U373MG (Uppsala). Put plainly: GBM cell line viability IC50, U373. The note with it: Homo sapiens, U373 MG. As for the experimental part: as §1, §2, §3, §4, §5
Another test concerns Mz-54. Put plainly: GBM cell line viability IC50, Mz54. On the procedure:
as §1, §2, §3, §4, §5

The next test concerns A172. Put plainly: GBM cell line viability IC50, A172. The note with it: Homo sapiens, A 172. As for the experimental part: as §1, §2, §3, §4, §5
For the next test, the system named is U138MG. Put plainly: GBM cell line viability IC50, U138. The conditions noted are these: Homo sapiens, U138-MG. On the procedure: as §1, §2, §3, §4, §5
The next test has as its system LN228. Briefly: GBM cell line viability IC50, LN228/LN229. The conditions noted are these: Homo sapiens, LN-229. On the procedure:
as §1, §2, §3, §4, §5

The next test concerns SW1783. Briefly: GBM cell line viability IC50, SW1783. The conditions noted are these: Homo sapiens. On the procedure: as §1, §2, §3, §4, §5
The next test has as its system LN18. Briefly: GBM cell line viability IC50, LN18. The conditions noted are these: Homo sapiens, LN-18. As for the experimental part:
as §1, §2, §3, §4, §5

For another test, the system named is SNB19. Briefly: GBM cell line viability IC50, SNB19. The conditions noted are these: Homo sapiens, SNB-19. As for the experimental part: as §1, §2, §3, §4, §5

Molecules are shown by their SMILES. Read-outs that look alike come from different tables or passages of the source. A value given as a limit tells only on which side of the number the result lay.

For orientation: IC50 means the concentration that gives 50% inhibition. Regarding `Cn1c(CCCCCCC(=O)NO)nc2cc(N(CCCl)CCCl)ccc21` [EDO-S101], the 50% inhibitory concentration (IC50) stood at 1.36 µM with U87MG; 6.61 µM with U118MG; 2.26 µM in the test on U373MG (Uppsala); 12.7 µM with Mz-54; 6.45 µM in the test with A172; 4.27 µM in the test with U138MG. For the same molecule, the IC50 in the test on LN228 worked out at 1.55 µM; in the test on SW1783 (SW1783), 8.24 µM; with LN18, 1.87 µM; in the test on SNB19 it was 2.17 µM.

As to `Cn1c(CCCC(=O)O)nc2cc(N(CCCl)CCCl)ccc21` [bendamustine], the 50% inhibitory concentration (IC50) with U87MG came out at 50 µM; in the test on U118MG, 35 µM; with U373MG (Uppsala), 35 µM; in the test with Mz-54, 60 µM; in the test with A172, 55 µM; in the test with U138MG, 30 µM. Also, the IC50 in the test on LN228 is 35 µM; in the test with SW1783 (SW1783), 38 µM; in the test with LN18, 25 µM; with SNB19 it was 32 µM.

Take `Cn1nnc2c(C(N)=O)ncn2c1=O` [temozolomide]: the IC50 with U87MG (MGMT negative U87G glioblastoma cell line, read-out: IC50) was 20 µM; in the test with U118MG (U118MG, MGMT pos., no unit in Table 2, read-out: IC50) it was greater than 100 µM; in the test with U373MG (Uppsala) (U373MG (Uppsala), MGMT neg., no unit in Table 2, read-out: IC50), 80 µM; in the test with Mz-54 (Mz-54, MGMT pos., no unit in Table 2, read-out: IC50), greater than 100 µM; in the test with A172 (A172, MGMT neg., no unit in Table 2, read-out: IC50), roughly 100 µM; with U138MG (U138MG, MGMT pos., no unit in Table 2, read-out: IC50) it was greater than 100 µM. Besides, the IC50 was greater than 100 µM in the test with LN228 (LN228, MGMT neg., no unit in Table 2, read-out: IC50); 80 µM in the test with SW1783 (SW1783, MGMT neg., no unit in Table 2, read-out: IC50); greater than 100 µM in the test on LN18 (LN18, MGMT pos., no unit in Table 2, read-out: IC50); greater than 100 µM with SNB19 (SNB19, MGMT neg., no unit in Table 2, read-out: IC50).
